The test system of data set [1] is sperm of a semen sample from a patient with asthenozoospermia. Kind of data set: In vitro assay of the effect of phosphodiesterase inhibitors on sperm motility. The conditions noted are these: vs untreated sample; for Increase in sperm type A + B: mixed 1:1 with semen; for Increase in sperm speed: subjective rating, all sperm types. In kind it is cell-based, human. On the set-up: key to Increase in sperm speed: the symbol ++ denotes a very significant increase in sperm motility. As to the method: In each case the corresponding phosphodiesterase inhibitor (rolipram, milrinone, ibudilast and pentoxifylline) was dissolved in a commercial medium suitable for performing sperm preparations (SpermRinse®) to the desired concentration. […] A semen sample was taken from a patient with asthenozoospermia and it was kept at room temperature for 5 minutes after liquefaction, it was mixed with SpermRinse® solution without phosphodiesterase inhibitor in a volumetric ratio of 1:1. Another part of the semen was mixed also after liquefaction with the SpermRinse® solution containing the phosphodiesterase inhibitor also in a proportion of 1:1 by volume. For each observation, 3 microdrops of the preparation were used, they were placed under an optical microscope with 20× objective and Makler camera. A sperm count was performed, the number of type A sperm (advancing rapidly, with rectilinear trajectory) and type B sperm (advancing rapidly, with curvilinear trajectory) of each sample being counted. This was performed for the untreated sample and for the samples treated with the phosphodiesterase inhibitor. Three readings were made for each sample and the mean value was calculated. Likewise, a subjective observation of the increase of sperm speed of all the sperm types was also performed for the samples treated with the phosphodiesterase inhibitor, with respect to the untreated samples.

Data set [2] relates to infertile men with asthenozoospermia. The conditions noted are these: 1200 mg daily for four months, cited from earlier work.
In a further data set the test system is couples with infertility. Kind of data set: Assay of the effectiveness of intravaginal pentoxifylline in the treatment of couples with infertility. In kind it is in vivo, human. As to the method: The most fertile days were determined by cervical mucus test, vaginal ultrasound, or ovulation test. An ovulation inducer, clomiphene or purified human gonadotrofin, irrespectively, was simultaneously administered to 6 of the couples. The gel was administered in 3 different cycles or in several days of the same cycle. A meeting was conducted with the patients between 15 and 20 hours after each administration and a microscopic examination of the endocervical exudate was performed.

Setting [3] is: microscopic examination 15 to 20 hours after transvaginal administration.

“Also recorded” adds a separate entry of the source.

Turning to `CC(C)C(=O)c1c(C(C)C)nn2ccccc12` [Ibudilast, 2-methyl-1-(2-(1-methyethyl)pyrazolo(1,5-a)pyridin-3-yl)-1-propanone], the “Increase in sperm type A + B” value in data set [1] (100 μM in SpermRinse) was “++ (the symbol ++ indicates an increase greater than 40% in the A+B sperm type count)”. Moreover, the “Increase in sperm speed” value in data set [1] (100 μM) is reported as “++”.
For the compound `Cc1[nH]c(=O)c(C#N)cc1-c1ccncc1` [Milrinone, 1,6-dihydro-2-methyl-6-oxo-(3,4′-bipyridine)-5-carbonitrile], in data set [1] (1 μM in SpermRinse), the “Increase in sperm type A + B” value was “++ (the symbol ++ indicates an increase greater than 40% in the A+B sperm type count)”. The “Increase in sperm speed” value in data set [1] (1 μM) was “++”.
Turning to `CC(=O)CCCCn1c(=O)c2c(ncn2C)n(C)c1=O` [Pentoxifylline, 3,7-dihydro-3,7-dimethyl-1-(5-oxohexyl)-1H-purine-2,6-dione], in data set [2] (15 infertile men), the “pregnancies counted after oral treatment” value is reported as 2 and the “pregnancy percentage after oral treatment” value is given as 13.3%. The “sperm motility of the subjects treated” value in data set [2] (oral) is “substantial improvement in sperm motility”. The “Increase in sperm type A + B” value in data set [1] (1 μM in SpermRinse) is recorded as “++ (the symbol ++ indicates an increase greater than 40% in the A+B sperm type count)”. Also, the “Increase in sperm speed” value in data set [1] (1 μM) is “++”. The pregnancies achieved with couples with infertility (among 20 couples, transvaginal gel of Example 2) turned out to be 4. For the same compound, in the data set with couples with infertility (setting [3]), the “cervical mucus characteristics (filancia, transparency, leukocytic diathesis)” value was “maintains and even improves the characteristics of cervical mucus; also recorded: improvement in the characteristics of cervical mucus”; the “type A sperm (WHO classification) counted in cervical exudate” value was “significant number of type A sperm”. Also, the “sperm quality in terms of motility in cervical exudate” value with couples with infertility (microscopic examination 15 to 20 hours after transvaginal administration, asthenozoospermia and normospermia) was “improvement in sperm quality in terms of motility”. Moreover, in the data set with couples with infertility (transvaginal administration in women), the “side effects due to the treatment” value is “not observed in any case; also recorded: does not cause any type of allergy or side effect”. Further, in the data set with couples with infertility (transvaginal, three single-doses of 10 g gel of Example 2 (4% pentoxifylline), after coitus, 20 couples), the “pregnancy percentage (effectiveness)” value was 20%.

(Values after patent US9801885B2, “Transvaginal phosphodiesterase inhibitors for infertility treatment” (PROKREA BCN, S.L., priority 2011, dated 2017).)
